Data taken from the supplement of paper PMC10307832.

Tests used:
Experiment in all cases: relative viability (nuclei count vs DMSO), 5 days (fraction); higher = more cells survive
[1] = compound: CC[C@@H]1C(=O)N(C)c2cnc(Nc3ccc(C(=O)NC4CCN(C)CC4)cc3OC)nc2N1C1CCCC1 [BI-2536] + CC(=O)c1c(C)c2cnc(Nc3ccc(N4CCNCC4)cn3)nc2n(C2CCCC2)c1=O [Palbociclib] (partner 0.5 µM)
Method in brief: (§1)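 Relative viability divides the nuclei count in treated wells by that in vehicle wells. Lung cancer cell lines were seeded in 1536-well plates, dosed by pin tool the next day, and fixed and stained after 5 days in one step with final 0.05% Triton X-100, 1% formaldehyde and 1 ug/ml Hoechst. Dosing was a single drug or a fixed anchor-drug dose plus five library-drug doses (not always all listed) in √10 steps, and values are medians of duplicate plates imaged at 4×.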

[2] = compound: CC[C@@H]1C(=O)N(C)c2cnc(Nc3ccc(C(=O)NC4CCN(C)CC4)cc3OC)nc2N1C1CCCC1 [BI-2536] + Cc1cc(Nc2cc(N3CCN(C)CC3)nc(Sc3ccc(NC(=O)C4CC4)cc3)n2)n[nH]1 [Tozasertib] (partner 0.1 µM)
Method in brief: as §1

[3] = compound: CC[C@@H]1C(=O)N(C)c2cnc(Nc3ccc(C(=O)NC4CCN(C)CC4)cc3OC)nc2N1C1CCCC1 [BI-2536] + Cc1nc(NC(=O)N2CCC[C@H]2C(N)=O)sc1-c1ccnc(C(C)(C)C(F)(F)F)c1 [Alpelisib] (partner 2 µM)
Method in brief: as §1

[4] = compound: CC[C@@H]1C(=O)N(C)c2cnc(Nc3ccc(C(=O)NC4CCN(C)CC4)cc3OC)nc2N1C1CCCC1 [BI-2536] + N=C(N)NC(=N)NCCc1ccccc1 [Phenformin] (partner 250 µM)
Method in brief: as §1

Row | Cell Line | relative viability ([1]; first compound 0.01 µM) | relative viability ([1]; first compound 0.03162 µM) | relative viability ([1]; first compound 0.1 µM) | relative viability ([1]; first compound 0.3162 µM) | relative viability ([1]; first compound 1 µM) | relative viability ([2]; first compound 0.01 µM) | relative viability ([2]; first compound 0.03162 µM) | relative viability ([2]; first compound 0.1 µM) | relative viability ([2]; first compound 0.3162 µM) | relative viability ([2]; first compound 1 µM) | relative viability ([3]; first compound 0.01 µM) | relative viability ([3]; first compound 0.03162 µM) | relative viability ([3]; first compound 0.1 µM) | relative viability ([3]; first compound 0.3162 µM) | relative viability ([3]; first compound 1 µM) | relative viability ([4]; first compound 0.01 µM) | relative viability ([4]; first compound 0.03162 µM) | relative viability ([4]; first compound 0.1 µM) | relative viability ([4]; first compound 0.3162 µM) | relative viability ([4]; first compound 1 µM)
1 | 201T | 0.367 | 0.344 | 0.347 | 0.314 | 0.287 | 0.996 | 0.925 | 0.93 | 0.41 | 0.388 | 0.997 | 1.03 | 0.973 | 0.441 | 0.285 | 0.38 | 0.431 | 0.276 | 0.315 | 0.23
2 | NCI-H23 | 0.465 | 0.528 | 0.304 | 0.146 | 0.111 | 0.331 | 0.458 | 0.182 | 0.142 | 0.141 | 0.734 | 0.737 | 0.369 | 0.139 | 0.135 | 0.769 | 0.781 | 0.415 | 0.115 | 0.122
3 | LOU-NH91 | 0.477 | 0.51 | 0.472 | 0.331 | 0.317 | 0.694 | 0.543 | 0.439 | 0.34 | 0.234 | 0.764 | 0.602 | 0.657 | 0.359 | 0.317 | 0.706 | 0.662 | 0.583 | 0.273 | 0.252
4 | NCI-H2085 | 0.489 | 0.446 | 0.409 | 0.287 | 0.301 | 0.787 | 0.737 | 0.478 | 0.368 | 0.438 | 1.01 | 0.863 | 0.601 | 0.234 | 0.307 | 0.785 | 0.69 | 0.307 | 0.183 | 0.243
5 | COR-L23 | 0.298 | 0.242 | 0.139 | 0.117 | 0.127 | 0.196 | 0.189 | 0.137 | 0.145 | 0.151 | 0.853 | 0.675 | 0.18 | 0.0928 | 0.0868 | 0.434 | 0.371 | 0.116 | 0.0966 | 0.0886
6 | BEN | 0.481 | 0.506 | 0.455 | 0.401 | 0.366 | 0.524 | 0.546 | 0.452 | 0.58 | 0.553 | 1.05 | 0.779 | 0.695 | 0.261 | 0.245 | 0.262 | 0.249 | 0.207 | 0.231 | 0.186
7 | LK-2 | 0.586 | 0.525 | 0.464 | 0.15 | 0.106 | 0.152 | 0.151 | 0.173 | 0.187 | 0.185 | 1.14 | 0.318 | 0.374 | 0.222 | 0.282 | 0.473 | 0.362 | 0.165 | 0.15 | 0.163
8 | NCI-H322M | 0.503 | 0.436 | 0.462 | 0.447 | 0.395 | 0.517 | 0.451 | 0.571 | 0.445 | 0.377 | 0.912 | 0.881 | 0.811 | 0.618 | 0.269 | 0.76 | 0.725 | 0.497 | 0.341 | 0.251
9 | NCI-H520 | 0.225 | 0.216 | 0.182 | 0.178 | 0.178 | 0.429 | 0.424 | 0.365 | 0.395 | 0.361 | 0.833 | 0.828 | 0.315 | 0.201 | 0.154 | 0.572 | 0.408 | 0.218 | 0.255 | 0.281
10 | ABC-1 | 0.561 | 0.629 | 0.374 | 0.358 | 0.423 | 0.203 | 0.147 | 0.185 | 0.197 | 0.233 | 1.08 | 1.13 | 0.732 | 0.296 | 0.3 | 0.307 | 0.256 | 0.222 | 0.196 | 0.191
11 | NCI-H1666 | 0.701 | 0.575 | 0.642 | 0.505 | 0.467 | 0.621 | 0.52 | 0.415 | 0.369 | 0.372 | 0.988 | 0.737 | 0.592 | 0.287 | 0.266 | 0.564 | 0.576 | 0.435 | 0.313 | 0.341
12 | NCI-H1993 | 0.623 | 0.714 | 0.5 | 0.468 | 0.427 | 0.497 | 0.615 | 0.609 | 0.617 | 0.59 | 0.68 | 0.618 | 0.556 | 0.532 | 0.541 | 0.493 | 0.432 | 0.52 | 0.41 | 0.475
13 | NCI-H1975 | 0.349 | 0.648 | 0.461 | 0.14 | 0.158 | 0.664 | 0.673 | 0.393 | 0.116 | 0.0975 | 0.654 | 0.479 | 0.351 | 0.148 | 0.173 | 0.394 | 0.355 | 0.215 | 0.126 | 0.118
14 | HCC-44 | 1.05 | 0.959 | 0.947 | 0.404 | 0.312 | 0.967 | 0.333 | 0.262 | 0.143 | 0.216 | 0.775 | 0.705 | 0.423 | 0.0667 | 0.0737 | 0.184 | 0.242 | 0.0815 | 0.1 | 0.0914
